Test results reported in US20250136722A1, “CYTOTOXICITY TARGETING CHIMERAS” (GLAXOSMITHKLINE INTELLECTUAL PROPERTY DEVELOPMENT LIMITED, priority 2021, published 2025).

Target: T1, CHOK1 cells engineered to overexpress human CCR2 (Homo sapiens, UniProt P41597)
T1 construct: expressed in transfected cells; host or cells: CHOK1 cells
Test: Antibody dependent cellular cytotoxicity (ADCC) reporter assay (Example 199)
Format: cell-based
Conditions: with anti-cotinine antibody SEQ ID NO: 11/12; CHOK1-human CCR2 target cells, Jurkat FcγRIIIa NFAT-luciferase reporter cells; 12-18 hours; read-out: ADCC Reporter Assay pEC50 (converted)
Method: An antibody dependent cellular cytoxicity reporter assay was conducted using the following four assay components: (i) ARM compound of Formula (I) targeting CCR2 (concentrations ranging from 1 pM to 10 μM) (ii) anti-cotinine antibody having a heavy chain sequence of SEQ ID NO: 11 and a light chain sequence of SEQ ID NO: 12 (rabbit variable region with human IgG1 Fc domain containing a DE mutation (S239D/1332E)) (concentrations ranging from 0.01 μg/mL to 200 μg/mL); (iii) target cells: CHOK1 cells engineered to overexpress either human CCR2 (typically 1000-20,000 cells per well) and (iv) reporter cells: Jurkat cells engineered to express FcγRIIIa with the reporter gene luciferase under the control of the NFAT promoter (typically 3000-75,000 cells per well). Reagents were combined in a final volume of 20 μL in a 384-well tissue culture treated plate. All four assay components were incubated together for about 12-18 hours. Thereafter, BioGlo Detection reagent (Promega) was added to the wells to lyse the cells and provide a substrate for the luciferase reporter protein. Luminescence signal was measured on a microplate reader and signal:background was calculated by dividing the signal of a test well by the signal obtained when no heterobivalent compound of Formula (I) was added. EC50 calculations were done using Graphpad Prism Software, specifically a nonlinear regression curve fit (Y=Bottom+(Top−Bottom)/(1+10^((Log EC50−X)*HillSlope))).
ARMs compounds of Formula (I) of the invention were tested for ADCC activity in the above assay in or more experimental runs and the results are shown in Table 3 below. Potency of the compounds of Formula (I) of the invention is reported as a pEC50 value. The pEC50 value is the negative log of the EC50 value, wherein the EC50 value is the half maximal effective concentration measured in molar (M). For compounds tested in more than one experimental run, the pEC50 value is reported as an average.

Compared with `CC(C)N(C)[C@@H]1CC[C@H](N2CC[C@H](Nc3ncnc4ccc(C(F)(F)F)cc34)C2=O)[C@H](NC(=O)c2cnn(C3CCN(CCOCCOCCNC(=O)[C@H]4CC(=O)N(C)[C@@H]4c4cccnc4)CC3)c2)C1` [Example 92, N-((1R,2S,5R)-5-(Isopropyl(methyl)amino)-2-((S)-2-oxo-3-((6-(trifluoromethyl)quinazolin-4-yl)amino)pyrrolidin-1-yl)cyclohexyl)-1-(1-(2-(2-(2-((2S,3S)-1-methyl-5-oxo-2-(pyridin-3-yl)pyrrolidine-3-carboxamido)ethoxy)ethoxy)ethyl)piperidin-4-yl)-1H-pyrazole-4-carboxamide], `CC(C)N(C)[C@@H]1CC[C@H](N2CC[C@H](Nc3ncnc4ccc(C(F)(F)F)cc34)C2=O)[C@H](NC(=O)C2CCC3(CC2)CCN(CCOCCOCCNC(=O)[C@H]2CC(=O)N(C)[C@@H]2c2cccnc2)CC3)C1` [Example 93] is 1.6-fold lower in EC50: 6.31 nM for the first, 3.98 nM for the second.

`CC(C)N(C)[C@@H]1CC[C@H](N2CC[C@H](Nc3ncnc4ccc(C(F)(F)F)cc34)C2=O)[C@H](NC(=O)[C@H]2CC[C@@H](NC(=O)C3CCC4(CC3)CCN(C(=O)[C@H]3CC(=O)N(C)[C@@H]3c3cccnc3)CC4)CC2)C1` [Example 95, N-((1 S,4R)-4-(((1R,2S,5R)-5-(Isopropyl(methyl)amino)-2-((S)-2-oxo-3-((6-(trifluoromethyl)quinazolin-4-yl)amino)pyrrolidin-1-yl)cyclohexyl)carbamoyl)cyclohexyl)-3-((2S,3S)-1-methyl-5-oxo-2-(pyridin-3-yl)pyrrolidine-3-carbonyl)-3-azaspiro[5.5]undecane-9-carboxamide] and `CC(C)N(C)[C@@H]1CC[C@H](N2CC[C@H](Nc3ncnc4ccc(C(F)(F)F)cc34)C2=O)[C@H](NC(=O)[C@H]2CC[C@H](NC(=O)CCO[C@H]3CC[C@@H](OCCNC(=O)[C@H]4CC(=O)N(C)[C@@H]4c4cccnc4)CC3)CC2)C1` [Example 114] are within 1.5-fold of each other in EC50: 6.31 nM for the first, 5.77 nM for the second.

`CC(C)N(C)[C@@H]1CC[C@H](N2CC[C@H](Nc3ncnc4ccc(C(F)(F)F)cc34)C2=O)[C@H](NC(=O)[C@H]2CC[C@H](N3CCN(C(=O)CCOCCOCCNC(=O)[C@H]4CC(=O)N(C)[C@@H]4c4cccnc4)CC3)CC2)C1` [Example 96, (2S,3S)-N-(2-(2-(3-(4-((1R,4r)-4-(((1R,2S,5R)-5-(Isopropyl(methyl)amino)-2-((S)-2-oxo-3-((6-(trifluoromethyl)quinazolin-4-yl)amino)pyrrolidin-1-yl)cyclohexyl)carbamoyl)cyclohexyl)piperazin-1-yl)-3-oxopropoxy)ethoxy)ethyl)-1-methyl-5-oxo-2-(pyridin-3-yl)pyrrolidine-3-carboxamide] and `CC(C)N(C)[C@@H]1CC[C@H](N2CC[C@H](Nc3ncnc4ccc(C(F)(F)F)cc34)C2=O)[C@H](NC(=O)[C@H]2CC[C@H](N3CCN(C4CC(CCNC(=O)[C@H]5CC(=O)N(C)[C@@H]5c5cccnc5)C4)CC3)CC2)C1` (stereo partly drawn) [Example 97, (2S,3S)-N-(2-(3-(4-((1R,4S)-4-(((1R,2S,5R)-5-(Isopropyl(methyl)amino)-2-((S)-2-oxo-3-((6-(trifluoromethyl)quinazolin-4-yl)amino)pyrrolidin-1-yl)cyclohexyl)carbamoyl)cyclohexyl)piperazin-1-yl)cyclobutyl)ethyl)-1-methyl-5-oxo-2-(pyridin-3-yl)pyrrolidine-3-carboxamide] are the same in EC50: 6.31 nM for the first, 6.31 nM for the second.

Going from `CN1C(=O)C[C@H](C(=O)NCCOCC(=O)NCCOCC(=O)N[C@H]2CC[C@@H](C(=O)N[C@@H]3C[C@H](NC(C)(C)C)CC[C@@H]3N3CC[C@H](Nc4ncnc5ccc(C(F)(F)F)cc45)C3=O)CC2)[C@H]1c1cccnc1` [Example 100] to `CN1C(=O)C[C@H](C(=O)NCCOCCOCCC(=O)N[C@H]2CC[C@@H](C(=O)N[C@@H]3C[C@H](NC(C)(C)C)CC[C@@H]3N3CC[C@H](Nc4ncnc5ccc(C(F)(F)F)cc45)C3=O)CC2)[C@H]1c1cccnc1` [Example 120, (2S,3S)-N-(2-(2-(3-(((1S,4s)-4-(((1R,2S,5R)-5-(tert-Butylamino)-2-((S)-2-oxo-3-((6-(trifluoromethyl)quinazolin-4-yl)amino)pyrrolidin-1-yl)cyclohexyl)carbamoyl)cyclohexyl)amino)-3-oxopropoxy)ethoxy)ethyl)-1-methyl-5-oxo-2-(pyridin-3-yl)pyrrolidine-3-carboxamide], the EC50 rises from 1.2 nM to 5.46 nM (4.5-fold).

Going from `CC(C)N(C)[C@@H]1CC[C@H](N2CC[C@H](Nc3ncnc4ccc(C(F)(F)F)cc34)C2=O)[C@H](NC(=O)[C@H]2CC[C@@H](NC(=O)CCOCCNC(=O)CCOCCCNC(=O)[C@H]3CC(=O)N(C)[C@@H]3c3cccnc3)CC2)C1` [Example 101] to `CC(C)N(C)[C@@H]1CC[C@H](N2CC[C@H](Nc3ncnc4ccc(C(F)(F)F)cc34)C2=O)[C@H](NC(=O)CCOCCOCCNC(=O)[C@@H]2CCCN2CCOCCNC(=O)[C@H]2CC(=O)N(C)[C@@H]2c2cccnc2)C1` [Example 118, (S)-N-(2-(2-(3-(((1R,2S,5R)-5-(Isopropyl(methyl)amino)-2-((S)-2-oxo-3-((6-(trifluoromethyl)quinazolin-4-yl)amino)pyrrolidin-1-yl)cyclohexyl)amino)-3-oxopropoxy)ethoxy)ethyl)-1-(2-(2-((2S,3S)-1-methyl-5-oxo-2-(pyridin-3-yl)pyrrolidine-3-carboxamido)ethoxy)ethyl)pyrrolidine-2-carboxamide], the EC50 rises from 0.278 nM to 3.98 nM (14-fold).

First: CN1C(=O)C[C@H](C(=O)NCCOCC(=O)NCCOCCC(=O)NCCOCCC(=O)N[C@@H]2C[C@H](NC(C)(C)C)CC[C@@H]2N2CC[C@H](Nc3ncnc4ccc(C(F)(F)F)cc34)C2=O)[C@H]1c1cccnc1 [Example 106]
Second: CC(C)N(C)[C@@H]1CC[C@H](N2CC[C@H](Nc3ncnc4ccc(C(F)(F)F)cc34)C2=O)[C@H](NC(=O)c2cccc(NCCOCCOCCOCCOCCNC(=O)[C@H]3CC(=O)N(C)[C@@H]3c3cccnc3)n2)C1 [Example 123, N-((1R,2S,5R)-5-(Isopropyl(methyl)amino)-2-((S)-2-oxo-3-((6-(trifluoromethyl)quinazolin-4-yl)amino)pyrrolidin-1-yl)cyclohexyl)-6-((1-((2S,3S)-1-methyl-5-oxo-2-(pyridin-3-yl)pyrrolidin-3-yl)-1-oxo-5,8,11,14-tetraoxa-2-azahexadecan-16-yl)amino)picolinamide]
The EC50 of the first is 9-fold lower: 0.558 nM for the first, 5.01 nM for the second.

First: CC(C)N(C)[C@@H]1CC[C@H](N2CC[C@H](Nc3ncnc4ccc(C(F)(F)F)cc34)C2=O)[C@H](NC(=O)[C@H]2C[C@H](NC(=O)CCO[C@H]3CC[C@@H](OCCNC(=O)[C@H]4CC(=O)N(C)[C@@H]4c4cccnc4)CC3)C2)C1 [Example 116]
Second: CC(C)N(C)[C@@H]1CC[C@H](N2CC[C@H](Nc3ncnc4ccc(C(F)(F)F)cc34)C2=O)[C@H](NC(=O)[C@H]2C[C@H](NC(=O)CCO[C@H]3CC[C@H](OCCNC(=O)[C@H]4CC(=O)N(C)[C@@H]4c4cccnc4)CC3)C2)C1 [Example 117]
The EC50 of the first is 16-fold higher: 5.01 nM for the first, 0.316 nM for the second.

Compared with `CC(C)N(C)[C@@H]1CC[C@H](N2CC[C@H](Nc3ncnc4ccc(C(F)(F)F)cc34)C2=O)[C@H](NC(=O)c2cccc(NCCOCCOCCOCCOCCOCCNC(=O)[C@H]3CC(=O)N(C)[C@@H]3c3cccnc3)n2)C1` [Example 124], `CC(C)N(C)[C@@H]1CC[C@H](N2CC[C@H](Nc3ncnc4ccc(C(F)(F)F)cc34)C2=O)[C@H](NC(=O)c2ccc(NCCOCCOCCOCCOCCNC(=O)[C@H]3CC(=O)N(C)[C@@H]3c3cccnc3)nn2)C1` [Example 125] is 1.6-fold higher in EC50: 2 nM for the first, 3.16 nM for the second.

Compared with `CC(C)N(C)[C@@H]1CC[C@H](N2CC[C@H](Nc3ncnc4ccc(C(F)(F)F)cc34)C2=O)[C@H](NC(=O)c2ccnc(NCCOCCOCCOCCOCCNC(=O)[C@H]3CC(=O)N(C)[C@@H]3c3cccnc3)c2)C1` [Example 126], `CC(C)N(C)[C@@H]1CC[C@H](N2CC[C@H](Nc3ncnc4ccc(C(F)(F)F)cc34)C2=O)[C@H](NC(=O)c2ccc(NCCOCCOCCOCCOCCNC(=O)[C@H]3CC(=O)N(C)[C@@H]3c3cccnc3)nc2)C1` [Example 128, N-((1R,2S,5R)-5-(Isopropyl(methyl)amino)-2-((S)-2-oxo-3-((6-(trifluoromethyl)quinazolin-4-yl)amino)pyrrolidin-1-yl)cyclohexyl)-6-((1-((2S,3S)-1-methyl-5-oxo-2-(pyridin-3-yl)pyrrolidin-3-yl)-1-oxo-5,8, 11, 14-tetraoxa-2-azahexadecan-16-yl)amino)nicotinamide] is 1.6-fold lower in EC50: 1.58 nM for the first, 1 nM for the second.

`CC(C)N(C)[C@@H]1CC[C@H](N2CC[C@H](Nc3ncnc4ccc(C(F)(F)F)cc34)C2=O)[C@H](NC(=O)c2cc(NCCOCCOCCOCCOCCNC(=O)[C@H]3CC(=O)N(C)[C@@H]3c3cccnc3)ncn2)C1` [Example 127] gave an EC50 of 1 nM.
